Consider 32 compounds from patent US5665745A, “Heterocyclic compounds and their preparation and use” (Eli Lilly and Company, priority 1995, dated 1997).

Structures are written as SMILES. Where two headings read alike, the source gives them in different places.

Broadly, the IC50 is the midpoint of a concentration-inhibition curve.

Assay [1] deals with T1, muscarinic receptors (M1 -site, pirenzepine sensitive site) (Rattus norvegicus, UniProt P08482).
T1 construct: from tissue; host or cells: cerebral cortex membranes of male Wistar rats
T1 sequence (P08482 1-460): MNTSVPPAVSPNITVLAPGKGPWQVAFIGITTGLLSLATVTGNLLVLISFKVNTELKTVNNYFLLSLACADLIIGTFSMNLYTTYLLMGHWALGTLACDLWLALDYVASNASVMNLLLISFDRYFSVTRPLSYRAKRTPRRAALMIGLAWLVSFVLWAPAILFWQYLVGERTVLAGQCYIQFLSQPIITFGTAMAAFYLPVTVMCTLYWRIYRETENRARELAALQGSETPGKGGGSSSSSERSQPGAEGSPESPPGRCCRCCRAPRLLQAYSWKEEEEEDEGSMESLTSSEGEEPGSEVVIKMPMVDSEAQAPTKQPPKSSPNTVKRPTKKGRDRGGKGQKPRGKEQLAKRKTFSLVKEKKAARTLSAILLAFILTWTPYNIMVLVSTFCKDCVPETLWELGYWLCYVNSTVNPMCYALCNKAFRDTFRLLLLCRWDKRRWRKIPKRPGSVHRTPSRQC
The assay can be described thus: inhibition of ^3 HPRZ (pirenzepine, [N-methyl-^3 H]) binding to rat cerebral cortex membranes. Details: species or system rat (male Wistar. An outline of the steps:
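Male Wistar rat cortex membranes in 20 mM Hepes pH 7.4 were incubated with 1.0 nM (final) [3H]pirenzepine for 60 min at 20° C; nonspecific binding was defined with 1 μg/mL atropine. Filtration and scintillation counting were used, and IC50 was calculated from a single concentration assuming mass-action kinetics.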

For assay [2], the target named is muscarinic acetylcholine receptors. The assay can be described thus: inhibition of specific binding of ^3 H-Oxotremorine-M (^3 H-Oxo). Details: species or system rat (male Wistar. To be noted: ^3 H-Oxotremorine 1.0 nM, rat cortex, 30 min. at 25° C. The procedure, abridged: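 Rat cortex membranes (male Wistar) in 20 mM Hepes pH 7.4 incubated with 1.0 nM ^3H-Oxotremorine-M (final) and test compound for 30 min at 25 °C; arecoline defines non-specific binding. Bound radioactivity by filtration and scintillation counting; IC50 (nM) from a single concentration via Co/Cx mass-action formula, reflecting high- and medium-affinity sites.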

Where [3] appears, read: ^3 HPRZ 1.0 nM, rat cortex, 60 min. at 20° C., read-out: ^3 HPRZ IC50 (head from b208 on: Pir IC-50).

In the case of `c1csc(CCOc2nsnc2O[C@@H]2CN3CCC[C@H]2C3)c1` (relative stereo) [Compound 189, (±)-endo-3-[2-(2-Thienyl)ethoxy]-4-(1-azabicyclo[3.2.1]octyl-6-oxy)-1,2,5-thiadiozole], the IC50 in assay [1] (setting [3]) amounted to 3.8 nM; in assay [2] it was 1.7 nM.
The corresponding values for `FC(F)(F)C(F)(F)COc1nsnc1O[C@@H]1CN2CCC[C@H]1C2` (relative stereo) [Compound 190, (±)-endo-3-(3,3,3,2,2,Pentafluoropropoxy)-4-(1-azabicyclo[3.2.1]octyl-6-oxy)-1,2,5-thiadiazole] are 2.5 nM and 3.9 nM.
For the compound `c1ccc(OCCOc2nsnc2O[C@@H]2CN3CCC[C@H]2C3)cc1` (relative stereo) [Compound 191, (±)-endo-3-(2-Phenoxyethoxy)-4-(1-azabicyclo[3.2.1]octyl-6-oxy)-1,2,5-thiadiazole], the figures for the IC50 in assay [1] (setting [3]) and in assay [2] were 9.5 nM and 1.4 nM, respectively.
As to `CCCCc1ccc(COc2nsnc2O[C@@H]2CN3CCC[C@H]2C3)cc1` (relative stereo) [Compound 192, (±)-endo-3-(4-n-Butylbenzyloxy)-4-(1-azabicyclo[3.2.1]octyl-6-oxy)-1,2,5-thiadiazole], the IC50 in assay [1] (setting [3]) was 21 nM; in assay [2], 13 nM.
Consider `COc1ccc(CCCOc2nsnc2O[C@@H]2CN3CCC[C@H]2C3)cc1` (relative stereo) [Compound 193, (±)-endo-3-[3-(4-Methoxyphenyl)propoxy]-4-(1-azabicyclo[3.2.1]octyl-6-oxy)-1,2,5-thiadiazole], for which the values for the IC50 in assay [1] (setting [3]) and in assay [2] were 10 nM and 3.7 nM, respectively.
Regarding `Fc1ccc(COc2nsnc2O[C@@H]2CN3CCC[C@H]2C3)cc1` (relative stereo) [Compound 194, (±)-endo-3-(4-Fluorobenzyloxy)-4-(1-azabicyclo[3.2.1]octyl-6-oxy)-1,2,5-thiadiazole], the half-inhibitory concentration (IC50) came to 4 nM in assay [1] (setting [3]) and 2.1 nM in assay [2].
As to `Fc1ccc(COc2nsnc2O[C@@H]2CN3CCC[C@H]2C3)c(F)c1` (relative stereo) [Compound 195, (±)-endo-3-(2,4-Difluorobenzyloxy)-4-(1-azabicyclo[3.2.1]octyl-6-oxy)-1,2,5-thiadiazole], the IC50 in assay [1] (setting [3]) amounted to 7.5 nM; in assay [2] it was 4.9 nM.
In the case of `FC(F)(F)Oc1ccc(COc2nsnc2O[C@@H]2CN3CCC[C@H]2C3)cc1` (relative stereo) [Compound 196, (±)-endo-3-[4-(Trifluoromethoxy)benzyloxy]-4-(1-azabicyclo[3.2.1]octyl-6-oxy)-1,2,5-thiadiazole], the IC50 in assay [1] (setting [3]) was 8.8 nM; in assay [2], 5.2 nM.
Take `FCCCCOc1nsnc1O[C@@H]1CN2CCC[C@H]1C2` (relative stereo) [Compound 197, (±)-endo-3-(4-Fluorobutoxy)-4-(1-azabicyclo[3.2.1]octyl-6-oxy)-1,2,5-thiadiazole]: the IC50 in assay [1] (setting [3]) stood at 6.9 nM; in assay [2], 2.3 nM.
As to `CC(C)(C)c1ccc(COc2nsnc2O[C@@H]2CN3CCC[C@H]2C3)cc1` (relative stereo) [Compound 198, (±)-endo-3-(4-tert-Butylbenzyloxy)-4-(1-azabicyclo[3.2.1]octyl-6-oxy)-1,2,5-thiadiazole], the figures for the IC50 in assay [1] (setting [3]) and in assay [2] were 120 nM and 31 nM, respectively.
The corresponding values for `C1CCC(CCOc2nsnc2O[C@@H]2CN3CCC[C@H]2C3)CC1` (relative stereo) [Compound 200, (±)-endo-3-(2-Cyclohexylethoxy)-4-(1-azabicyclo[3.2.1]octyl-6-oxy)-1,2,5-thiadiazole] are 12 nM and 16 nM.
As to `CC(C)=CCOc1nsnc1O[C@@H]1CN2CCC[C@H]1C2` (relative stereo) [Compound 201, (±)-endo-3-(3-Methyl-2-butenyloxy)-4-(1-azabicyclo[3.2.1]octyl-6-oxy)-1,2,5-thiadiazole], the IC50 is 3.1 nM in assay [1] (setting [3]) and 3.7 nM in assay [2].
The corresponding values for `C1CCC(CCCCOc2nsnc2O[C@@H]2CN3CCC[C@H]2C3)CC1` (relative stereo) [Compound 202, (±)-endo-3-(4-Cyclohexylbutoxy)-4-(1-azabicyclo[3.2.1]octyl-6-oxy)-1,2,5-thiadiazole] are 31 nM and 13 nM.
Turning to `CC(C)(CCOc1nsnc1O[C@@H]1CN2CCC[C@H]1C2)c1ccccc1` (relative stereo) [Compound 204, (±)-endo-3-(3-Methyl-3-phenylbutoxy)-4-(1-azabicyclo[3.2.1]octyl-6-oxy)-1,2,5-thiadiazole], the IC50 in assay [1] (setting [3]) is 153 nM; in assay [2], 59 nM.
The corresponding values for `FCCCOc1nsnc1O[C@@H]1CN2CCC[C@H]1C2` (relative stereo) [Compound 205, (±)-endo-3-(3-Fluoropropoxy)-4-(1-azabicyclo[3.2.1]octyl-6-oxy)-1,2,5-thiadiazole] are 3 nM and 2.5 nM.
The corresponding values for `c1csc(CCCOc2nsnc2O[C@@H]2CN3CCC[C@H]2C3)c1` (relative stereo) [Compound 206, (±)-endo-3-[3-(2-Thienyl)propoxy]-4-(1-azabicyclo[3.2.1]octyl-6-oxy)-1,2,5-thiadiazole] are 5 nM and 6.1 nM.
With `CCCCCSc1nsnc1O[C@@H]1CN2CCC1CC2` [Compound 16, (S)-3-Pentylthio-4-(1-azabicyclo[2.2.2]octyl-3-oxy)-1,2,5-thiadiazole], the IC50 in assay [1] was 2 nM; in assay [2] it was 6.4 nM.
For the compound `CCCCSc1nsnc1OC1CCN(C)CC1` [Compound 30, 3-Butylthio-4-(1-methyl-4-piperidyloxy)-1,2,5-thiadiazole], the figures for the IC50 in assay [1] (setting [3]) and in assay [2] were 19 nM and 69 nM, respectively.
The corresponding values for `CCCCOc1nsnc1OC[C@@H]1CCCN1C` [Compound 31, (S)-3-Butyloxy-4-(1-methyl-2-pyrrolidinylmethyloxy)-1,2,5-thiadiazole] are 12 nM and 32 nM.
The corresponding values for `CCCCOc1nsnc1OC[C@@H]1CCCN1` [Compound 32, (S)-3-Butyloxy-4-(2-pyrrolidinylmethyloxy)-1,2,5-thiadiazole] are 45 nM and 77 nM.
`CCCCOc1nsnc1OCCN(C)C` [Compound 33, 3-Butyloxy-4-(2-(dimethylamino)ethoxy)-1,2,5-thiadiazole]: the IC50 in assay [1] (setting [3]) is 48 nM; in assay [2] it was 51 nM.
With `CCCCSc1nsnc1OCCN(CC)CC` [Compound 34, 3-Butylthio-4-(2-(diethylamino)ethoxy)-1,2,5-thiadiazole], the IC50 came to 10 nM in assay [1] (setting [3]) and 86 nM in assay [2].
Consider `CCCCOc1nsnc1OCC[N+](C)(C)C` [Compound 35, 3-Butyloxy-4-(2-(trimethylamino)ethoxy)-1,2,5-thiadiazole iodide], for which the IC50 in assay [1] (setting [3]) was determined as 33 nM; in assay [2] it was 23 nM.
On to `CCCCOc1nsnc1SCCN(C)C` [Compound 36, 3-Butyloxy-4-(2-(dimethylamino)ethylthio)-1,2,5-thiadiazole], for which the figures for the IC50 in assay [1] (setting [3]) and in assay [2] were 217 nM and 204 nM, respectively.
In the case of `CCCCCSc1nsnc1O[C@H]1CN2CCC1CC2` [Compound 38, (R)-3-Pentylthio-4-(1-azabicyclo[2.2.2]octyl-3-oxy)-1,2,5-thiadiazole], the IC50 worked out at 1.9 nM in assay [1] and 1 nM in assay [2].
The corresponding values for `CCCCOc1nsnc1OC1CC2CCC(C1)N2C` (stereo not shown) [Compound 45] are 4.6 nM and 29 nM.
`CCCCOc1nsnc1OC1CNC1` [Compound 50, 3-Butyloxy-4-(3-azetidinyloxy)-1,2,5-thiadiazole]: the IC50 in assay [1] (setting [3]) came to 351 nM; in assay [2], 92 nM.
The corresponding values for `CCCCSc1nsnc1OC1CNC1` [Compound 51, 3-Butylthio-4-(3-azetidinyloxy)-1,2,5-thiadiazole] are 112 nM and 25 nM.
The corresponding values for `CCCCOc1nsnc1O[C@@H]1CCC[C@@H]1N` [Compound 135, 3-Butyloxy-4-(cis-1R-2-aminocyclopentanoxy)-1,2,5-thiadiazole] are over 1000 nM and over 1000 nM.
The corresponding values for `CCCCSc1nsnc1O[C@@H]1CN2CCC[C@H]1C2` [Compound 137, (5S, 6S)-endo-3-Butylthio-4-(1-azabicyclo[3.2.1]octyl-6-oxy)-1,2,5-thiadiazole] are 2.1 nM and 7.39 nM.
On to `CCCCSc1nsnc1O[C@H]1CN2CCC[C@@H]1C2` [Compound 138, (5R,6R)-endo-3-Butylthio-4-(1-azabicyclo[3.2.1]octyl-6-oxy)-1,2,5-thiadiazole], for which the IC50 amounted to 0.47 nM in assay [1] (setting [3]) and 0.65 nM in assay [2].
Consider `O=C1CCCn2cccc21` [Compound 139, 1-azabicyclo[4.3.0]nona-6,8-diene-5-one], for which the IC50 in assay [1] (setting [3]) was found to be 145 nM; in assay [2] it was 230 nM.
